Results published in patent US11261210B2, “Glycosylated antitumor ether lipids as novel cancer stem cell cytotoxic agents” (UNIVERSITY OF MANITOBA, priority 2012, dated 2022).

Experiments:
[1] = tested on: cancer stem cells; assay: Tumorsphere formation by freshly sorted cancer stem cells; type: cell-based, human; conditions: added to freshly sorted cancer stem cells, 10 μM and above, 6 days
Source text: Breast cancer stem cell enriched cell population was obtained by staining breast cancer cell lines BT-474 and JIMT-1 for aldehyde dehydrogenase 1 (ALDH1) using the assay kit from Stem Cell Technologies (Vancouver BC, Canada) according to the instructions of the manufacturer with the appropriate controls. BT-474 is a ductal carcinoma cell line (Lasfargues E Y, Coutinho W G, Dion A S (1979) A human breast tumor cell line (BT-474) that supports mouse mammary tumor virus replication. In Vitro 15, 723-729) while JIMT-1 is a carcinoma cell line that is resistant to herceptin (Tanner M, Kapanen A J, Junttila T, Raheem O, Grenman S, Elo J, Elenius K, Isola J (2004). Characterization of a novel cell line established from a patient with herceptin-resistant breast cancer. Mol Cancer Ther 3, 1585-1592). Following the staining, the cells stained for ALDH1 were sorted from the bulk population by flow cytometry on a 4 laser MoFloXPP high speed/pressure cell sorter. The cells were pelleted by centrifugation, resuspended in supplemented Mammocult medium (Stem Cell Technologies) and dispersed into ultra-low adhesive 6-well plates or 35 mm dishes for 7 days to allow the formation of spheroids (mammospheres). After 7 days, the spheres were separated from single cells (dead non-stem cells) by sieving the contents of the well through a […] nylon cell strainer (BD Falcon). The spheres retained in the sieve are washed with Hanks buffer and subsequently trypsinised to obtain a single cell suspension of cancer stem cells. The cell numbers were determined with a Coulter ZM counter and the cells were seeded into the appropriate low adhesion tissue culture ware for various studies.
AEL solutions in ethanol were diluted into supplemented mammocult medium generally at twice the desired final concentration. A volume equal to that in the wells was added to dilute the drug to the desired concentration in each well. Subsequently any further addition of drug to the wells, utilized AEL solution prepared at the desired concentration. […]

[2] = tested on: BT-474 cancer stem cells; assay: BT-474 cancer stem cell spheroid formation; type: cell-based, human; conditions: BT474 cancer stem cells, FIG. 1B
Method: FIG. 1. A. Effect of β-C-Gln (β-AC1) on BT-474 cancer stem cell spheroid formation. BT-474 cancer stem cells were obtained by staining BT474 cells for ALDH1 and sorting the stained from unstained cells by flow cytometry. The ALDH1 stained cells were grown in ultra-low adhesion 6-well plates in mammocult medium for 7 days. The spheroids were isolated and trypsinised to generate single cells. The cells were then seeded for 2 days in ultra-low adhesion 6-well plates, and subsequently incubated in the absence or presence of C-Gln for up to 12 days. The media was replenished after 6 days. B. Effect of β-O-Gln (β-AO1), α-O-Gln (α-AO1), or ET-18-OCH3 on BT-474 cancer stem cell spheroid formation.
Breast cancer stem cell enriched cell population was obtained by staining breast cancer cell lines BT-474 and JIMT-1 for aldehyde dehydrogenase 1 (ALDH1) using the assay kit from Stem Cell Technologies (Vancouver BC, Canada) according to the instructions of the manufacturer with the appropriate controls. […] The cell numbers were determined with a Coulter ZM counter and the cells were seeded into the appropriate low adhesion tissue culture ware for various studies. […]

[3] = tested on: BT-474 stem cell tumorspheres; assay: Viability of BT-474 stem cell tumorspheres (MTS assay); type: cell-based, human; conditions: 6 days
Method: FIG. 6. Effect of β-O-Gln, α-O-Gln, β-C-Gln and ET-18-OCH3 on the viability of BT-474 stem cell tumorspheres. BT-474 cancer stem cells were grown for 7 days in ultra low adhesion 6 well plates. The tumorspheres formed were harvested, trypsinised and cell numbers were determined. Equal numbers of cells were dispersed into 48-well plates in mammocult medium and incubation was under static conditions. Wells with only medium but no cells were treated in an identical manner to serve as blanks. After spheres were formed, β-O-Gln, α-O-Gln, β-C-Gln or ET-18-OCH3 (0, 10, 20, 30 μM) were added and incubation was for a total of 6 days. At the end of the incubation, the MTS reagent was added to each well and the plates were rotated on a Nutator mixer in a 5% CO2 incubator for 4 h. The absorbance of each well was read at 470 nm. The results are the means±standard deviation of 4 independent determinations.
(§1) Cell viability assay: Cell viability was determined by the Cell Titre 96 Aqueous One solution proliferation assay ((MTS assay; Promega) according to the instructions of the manufacturer.
The viability of the material at the end of the incubation was determined using the MTS assay. […] In cells incubated with 10 μM of β-C-Gln, 90% of the cells were not viable. […] In contrast, in experiments with ET-18-OCH3, 10 or 20 μM ET-18-OCH3 had little effect on the viability of BT-474 spheroids and at a concentration of 30 μM viability was around 45% relative to controls. The results of the integrity studies correlate well with the viability studies.
We also investigated the effect of α-O-Galn, β-O-Galn or α-O-Mann on the viability of BT-474 spheroids. The spheroids were incubated with the compounds for 6 days and the viability was assessed by the MTS assay. […] Viability was down to around 10% at 10 μM concentration of the compound. […] At a concentration of 30 μM a significant proportion (26-32%) of the BT-474 cancer stem cells were still viable. The cytotoxic efficacy of GAELs is dependent on the type of sugar moiety and the anomeric form in some instances.

[4] = tested on: JIMT1 stem cell tumorspheres; assay: Viability of JIMT1 stem cell tumorspheres (MTS assay); type: cell-based, human; conditions: 6 days
Method: FIG. 8. Effect of β-O-Gln, α-O-Gln, β-C-Gln and ET-18-OCH3 on the viability of JIMT1 stem cell tumorspheres. BT-474 cancer stem cells were grown for 7 days in ultra low adhesion 6-well plates. The tumorspheres formed were harvested, trypsinised and cell numbers were determined. Equal numbers of cells were dispersed into 48-well non-treated plates in mammocult medium and incubation was under static conditions. Wells with only medium but no cells were treated in an identical manner to serve as blanks. After spheres were formed, O-Gln, C-Gln or ET-18-OCH3 (0, 10, 20, 30 μM) were added and incubation was for a total of 6 days. At the end of the incubation, the MTS reagent was added to each well and the plates were mixed in a nutator in a 5% CO2 incubator for 4 h. The absorbance of each well was read at 470 nm. The results are the means±standard deviation of 4 independent determinations.
as §1
The viability of cells in spheroids incubated with 20 or 30 μM ET-18-OCH3 was between 30-40% of controls.

[5] = cells with a functioning apoptotic pathway; cited from earlier work

CCCCCCCCCCCCCCCCOC[C@H](CO[C@@H]1O[C@H](CO)[C@@H](O)[C@H](O)[C@H]1N)OC [β-O-Gln, 1-O-hexadecyl-2-O-methyl-3-O-(2′-amino-2′-deoxy-β-D-glucopyranosyl)-sn-glycerol]
spheroid formation [1]: unable to form spheroids | spheroid formation [2]: unable to form spheroids | loss of viability ([3]; 10 μM): about 60% | loss of viability ([3]; 20 or 30 μM): total loss of viability | loss of viability ([4]; 10 μM): 90% | loss of viability ([4]; 20 or 30 μM): Complete loss of viability | caspase 3 or 9 activation during cell death [5]: without activation of caspase 3 or 9
